Two compounds from patent publication US8389011B2, “Pharmaceutical compositions of cholesteryl ester transfer protein inhibitors” (Bend Research, Inc., priority 2000, dated 2013) can be followed below.

The nature of this data set: In vitro dissolution test, microcentrifuge method, in phosphate buffered saline (PBS) pH 6.5. The data set is classed as physicochemical. The note with it: PBS pH 6.5, 37° C., TCmax 1000 μg/mL; for AUC90 / Cmax, 90: Table 16, Drugs 4-9. On the procedure:
The compositions comprising the CETP inhibitor and concentration-enhancing polymer provide enhanced concentration of the dissolved CETP inhibitor in in vitro dissolution tests. […] An appropriate PBS solution is an aqueous solution comprising 20 mM sodium phosphate (Na2HPO4), 47 mM potassium phosphate (KH2PO4), 87 mM NaCl, and 0.2 mM KCl, adjusted to pH 6.5 with NaOH. An appropriate MFD solution is the same PBS solution wherein additionally is present 7.3 mM sodium taurocholic acid and 1.4 mM of 1-palmitoyl-2-oleyl-sn-glycero-3-phosphocholine. In particular, a composition of the present invention can be dissolution-tested by adding it to MFD or PBS solution and agitating to promote dissolution.
Indeed, for some extremely insoluble CETP inhibitors, in order to identify the MDC achieved it may be necessary to use an amount of test composition such that if all of the CETP inhibitor dissolved, the CETP inhibitor concentration would be 10,000-fold or even more, that of the equilibrium concentration of the CETP inhibitor.
The MDC is taken to be the maximum value of dissolved CETP inhibitor measured over the duration of the test.
Filtration can be conducted using a 13 mm, 0.45 μm polyvinylidine difluoride syringe filter sold by Scientific Resources under the trademark TITAN®. Centrifugation is typically carried out in a polypropylene microcentrifuge tube by centrifuging at 13,000 G for 60 seconds. Other similar filtration or centrifugation methods can be employed and useful results obtained.
The spray-dried dispersions of Examples 6 and 7 were evaluated in an in vitro dissolution test using a microcentrifuge method. In this test, the spray-dried dispersion was added to a microcentrifuge tube for a Drug 2 dose of about 1000 μg/mL (7.2 mg for Example 6, 18 mg for Example 7). The tube was placed in a 37° C. sonicating bath, and 1.8 mL phosphate buffered saline (PBS) at pH 6.5 and 290 mOsm/kg was added. The samples were quickly mixed using a vortex mixer for about 60 seconds. The samples were centrifuged at 13,000 G at 37° C. for 1 minute. The resulting supernatant solution was then sampled and diluted 1:6 (by volume) with methanol and then analyzed by high-performance liquid chromatography (HPLC). The contents of the tubes were mixed on the vortex mixer and allowed to stand undisturbed at 37° C. until the next sample was taken. Samples were collected at 4, 10, 20, 40, 90, and 1200 minutes.
For Control 2, an in vitro dissolution test was performed using the procedures described above except that 1.8 mg of crystalline Drug 2 was used.
In this method, 7.2 mg of each spray-dried dispersion was added to a 2-mL microcentrifuge tube. The tube was placed in a 37° C. sonicating bath, and 1.8 mL of a phosphate-buffered saline (PBS) solution at pH 6.5 and 290 mOsm/kg was added, resulting in a TCmax of 400 μg/mL. The samples were quickly mixed using a combination of vortex mixer and sonication for about 90 seconds. The samples were centrifuged at 13,000 G at 37° C. for 1 minute. The resulting supernatant solution was then sampled and diluted 1:6 (by volume) with methanol and then analyzed by HPLC. The tubes were then mixed on the vortex mixer and allowed to stand undisturbed at 37° C. until the next sample. Samples were collected at 4, 10, 20, 40, 90 and 1200 minutes.
For Control 5, an in vitro dissolution test was performed using the procedure described above, except that 0.72 mg of non-crystalline Drug 3 was placed in a microcentrifuge tube and mixed with 1.8 mL of PBS.
In this method, 15 mg of each SDD was added to a 2-mL microcentrifuge tube. The tube was placed in a 37° C. sonicating bath, and 1.5 mL of a phosphate-buffered saline (PBS) solution at pH 6.5 and 290 mOsm/kg) was added, resulting in a TCmax of 1000 μg/mL. The samples were quickly mixed using a combination of vortex mixer and sonication for about 90 seconds.

The structures appear in SMILES notation. Bounds are passed on as bounds.

`COC(=O)N(Cc1cc(C(F)(F)F)cc(C(F)(F)F)c1)[C@H]1C[C@@H](C2CC2)N(C(=O)OC(C)C)c2ccc(C(F)(F)F)cc21` [Control 10, [2S,4S]4-[(3,5-bis-trifluoromethyl-benzyl)-methoxycarbonyl-amino]-2-cyclopropyl-6-trifluoromethyl-3,4-dihydro-2H-quinoline-1-carboxylic acid isopropyl ester]: the AUC90 was less than 90 min-μg/mL and the “Cmax, 90” value was less than 1000 ng/mL. In addition, for the setting “time 0 min”, the AUC came out at 0 min-μg/mL and the Concentration is 0 ng/mL. Further, for the setting “time 4 min”, the AUC is less than 4 min-μg/mL and the Concentration was less than 1000 ng/mL. Where the note is “time 10 min”, the AUC is listed as less than 10 min-μg/mL and the Concentration was less than 1000 ng/mL. In addition, under “time 20 min”, the AUC is less than 20 min-μg/mL and the Concentration is less than 1000 ng/mL. Further, under “time 40 min”, the AUC is recorded as less than 40 min-μg/mL and the Concentration is less than 1000 ng/mL. For the same compound, under “time 90 min”, the AUC is given as less than 90 min-μg/mL and the Concentration was less than 1000 ng/mL.

On to `CC1(C)Cc2nc(C3CCCC3)c([C@@H](F)c3ccc(C(F)(F)F)cc3)c(-c3ccc(F)cc3)c2[C@@H](O)C1` [Control 11, [3S,5S]2-cyclopentyl-4-(4-fluoro-phenyl)-3-[fluoro-(4-trifluoromethyl-phenyl)-methyl]-7,7-dimethyl-5,6,7,8-tetrahydro-quinolin-5-ol], for which the AUC90 is recorded as less than 90 min-μg/mL and the “Cmax, 90” value was less than 1000 ng/mL. Where the note is “time 0 min”, the AUC is given as 0 min-μg/mL and the Concentration was 0 ng/mL. Moreover, under “time 4 min”, the AUC is listed as less than 4 min-μg/mL and the Concentration is less than 1000 ng/mL. Moreover, for the setting “time 10 min”, the AUC was less than 10 min-μg/mL and the Concentration was less than 1000 ng/mL. Besides, for the setting “time 20 min”, the AUC was less than 20 min-μg/mL and the Concentration is less than 1000 ng/mL. In addition, for the setting “time 40 min”, the AUC is given as less than 40 min-μg/mL and the Concentration was less than 1000 ng/mL. Besides, where the note is “time 90 min”, the AUC is listed as less than 90 min-μg/mL and the Concentration was less than 1000 ng/mL.
